One may read the Ki as a dissociation constant, usually derived from enzyme kinetics or from competition with a known ligand. Read a low Ki as higher affinity. What is called IC50 is the concentration that gives 50% inhibition. What is called Inhibition is how much of the control response was suppressed. High values mean a strong effect, low ones a weak effect. As a reminder, the half-life is how long it takes for the measured level to halve.

The target of series [1] is T1, Cysteinyl leukotriene receptor 1 (Cavia porcellus, UniProt Q2NNR5).
T1 sequence (Q2NNR5 whole entry): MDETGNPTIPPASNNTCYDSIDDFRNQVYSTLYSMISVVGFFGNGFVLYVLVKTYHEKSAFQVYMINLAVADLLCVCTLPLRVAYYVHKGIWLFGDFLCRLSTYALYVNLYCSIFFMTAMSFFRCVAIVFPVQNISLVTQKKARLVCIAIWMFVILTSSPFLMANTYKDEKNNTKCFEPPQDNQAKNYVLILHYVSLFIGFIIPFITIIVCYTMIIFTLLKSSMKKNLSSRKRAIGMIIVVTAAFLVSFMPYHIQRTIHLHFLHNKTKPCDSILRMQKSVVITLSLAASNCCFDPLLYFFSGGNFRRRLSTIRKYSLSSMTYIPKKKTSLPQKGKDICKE
Put plainly: The compound was tested for binding affinity against Cysteinyl leukotriene D4 receptor in a soluble guinea pig LTD4 receptor preparation.

For series [2], the species on record is Cavia porcellus. The experiment in a line: The compound was tested for blocking of LTD4-induced contractions of guinea pig trachea. The format is functional. As to conditions: read-out: pA2 (converted).
In series [3] the target is T2, Prostaglandin G/H synthase (cyclooxygenase) (Mus musculus, UniProt P22437+Q05769).
T2 sequence (P22437 whole entry): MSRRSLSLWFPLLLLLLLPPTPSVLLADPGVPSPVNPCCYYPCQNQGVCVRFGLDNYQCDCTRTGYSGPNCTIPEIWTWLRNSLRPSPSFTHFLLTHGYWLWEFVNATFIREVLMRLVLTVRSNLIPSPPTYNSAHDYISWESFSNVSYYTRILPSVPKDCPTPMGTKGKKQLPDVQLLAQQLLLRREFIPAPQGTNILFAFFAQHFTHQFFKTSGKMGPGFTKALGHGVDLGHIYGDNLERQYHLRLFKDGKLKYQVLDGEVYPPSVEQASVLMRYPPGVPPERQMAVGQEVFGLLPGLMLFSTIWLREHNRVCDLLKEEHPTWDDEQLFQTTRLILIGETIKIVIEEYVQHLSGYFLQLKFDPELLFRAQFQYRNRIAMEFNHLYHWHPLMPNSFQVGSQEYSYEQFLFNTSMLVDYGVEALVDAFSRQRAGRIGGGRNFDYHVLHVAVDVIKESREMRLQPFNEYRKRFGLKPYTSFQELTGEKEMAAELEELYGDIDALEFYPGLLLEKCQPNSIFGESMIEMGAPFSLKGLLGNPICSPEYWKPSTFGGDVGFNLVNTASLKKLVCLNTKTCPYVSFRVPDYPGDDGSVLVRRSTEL
T2 sequence (Q05769 whole entry): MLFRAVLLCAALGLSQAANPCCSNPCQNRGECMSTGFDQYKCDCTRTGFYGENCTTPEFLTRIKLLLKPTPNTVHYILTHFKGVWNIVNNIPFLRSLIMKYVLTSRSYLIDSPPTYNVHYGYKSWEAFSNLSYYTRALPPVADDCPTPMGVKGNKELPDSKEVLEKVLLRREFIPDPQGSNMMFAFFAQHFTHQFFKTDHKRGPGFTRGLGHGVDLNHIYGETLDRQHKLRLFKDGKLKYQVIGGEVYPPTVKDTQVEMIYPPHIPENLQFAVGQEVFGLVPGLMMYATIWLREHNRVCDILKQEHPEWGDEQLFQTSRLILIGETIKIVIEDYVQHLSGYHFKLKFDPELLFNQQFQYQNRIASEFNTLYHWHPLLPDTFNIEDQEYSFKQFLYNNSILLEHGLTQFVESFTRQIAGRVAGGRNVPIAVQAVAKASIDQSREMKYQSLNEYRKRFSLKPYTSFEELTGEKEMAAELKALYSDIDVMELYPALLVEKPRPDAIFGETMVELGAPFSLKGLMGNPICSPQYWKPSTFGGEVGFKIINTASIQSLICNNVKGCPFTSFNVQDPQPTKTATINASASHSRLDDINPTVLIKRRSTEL
The experiment in a line: The compound was tested for inhibitory activity against Prostaglandin G/H synthase in mouse macrophage. The format is protein assay.

For series [4], the target named is Cyclooxygenase (Rattus norvegicus) (UniProt P35355+Q63921). The experiment in a line: The compound was tested for inhibition of Prostaglandin G/H synthase in rat polymorphonuclear leukocytes[PMNS] at 100 uM concentration. It is filed as functional, cell-based.
For series [5], the system named is Mus musculus. Put plainly: The effective dose for inhibition of mouse zymosan peritonitis (in vivo). The format is functional.
Series [6] deals with T3, Polyunsaturated fatty acid 5-lipoxygenase (Rattus norvegicus, UniProt P12527).
T3 sequence (P12527 whole entry): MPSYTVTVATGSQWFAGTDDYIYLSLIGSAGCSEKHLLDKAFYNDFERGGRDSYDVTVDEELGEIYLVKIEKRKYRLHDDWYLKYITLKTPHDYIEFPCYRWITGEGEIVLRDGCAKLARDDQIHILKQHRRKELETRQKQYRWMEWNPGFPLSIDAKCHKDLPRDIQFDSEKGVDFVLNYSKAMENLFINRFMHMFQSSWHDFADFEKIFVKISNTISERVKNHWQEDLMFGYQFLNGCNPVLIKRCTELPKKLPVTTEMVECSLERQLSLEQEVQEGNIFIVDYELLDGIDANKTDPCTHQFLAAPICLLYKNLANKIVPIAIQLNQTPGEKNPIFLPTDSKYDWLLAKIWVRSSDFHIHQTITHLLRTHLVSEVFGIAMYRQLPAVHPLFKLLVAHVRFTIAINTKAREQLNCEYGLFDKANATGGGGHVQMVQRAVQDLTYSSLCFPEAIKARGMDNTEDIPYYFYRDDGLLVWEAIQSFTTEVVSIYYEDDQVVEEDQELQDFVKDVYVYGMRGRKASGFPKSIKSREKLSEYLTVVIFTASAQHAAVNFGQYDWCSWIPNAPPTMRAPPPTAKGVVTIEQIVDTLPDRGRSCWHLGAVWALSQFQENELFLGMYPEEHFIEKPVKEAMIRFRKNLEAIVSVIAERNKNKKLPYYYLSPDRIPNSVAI
The experiment in a line: The compound was tested for inhibitory activity against 5-lipoxygenase in rat polymorphonuclear leukocytes[PMNS] (in vitro). It is filed as cell-based.

The test system of series [7] is Rattus norvegicus. Put plainly: The effective dose after peroral administration for antiinflammatory activity against rat carrageenan edema. The format is functional. As to conditions: po.
The test system of a further series is RBL-1. The experiment in a line: The compound was tested for inhibitory activity in rat RBL-1 cells. It is filed as functional, cell-based.
Series [8] can be described thus: Oral bioavailability was determined; range 49-102%. To be noted: in vivo, read-out: Bioavailabiility. It is filed as ADME, organism-based.
A short description of series [9]: The compound was tested for inhibitory activity which inhibits prostaglandin E2[PGE2] synthesis by zymosan-activated mouse peritoneal macrophages. The format is functional.
For series [10], the species on record is Rattus norvegicus. Put plainly: The compound was tested for inhibitory activity against synthesis of immunoreactive thromboxane B2 in rat PMNs. The format is functional.
For series [11], the species on record is Mus musculus. The experiment in a line: The compound was tested for inhibitory activity which inhibits LTC4 synthesis by zymosan-activated mouse peritoneal macrophages. The format is functional.
Series [12] relates to Rattus norvegicus. The experiment in a line: The compound was tested for inhibition in rat carrageenan paw edema assay. The format is functional. Background: In the carrageenan paw model, swelling and tenderness develop within hours.
The species named for series [13] is Rattus norvegicus. Put plainly: The compound was tested for inhibitory activity against synthesis of immunoreactive LTB4. The format is functional.
Series [14] can be described thus: Plasma half-life was determined; 0.5-17.7h. It is filed as ADME.
The subject of series [15] is Cavia porcellus. Put plainly: The inhibitory dose for antigen induced bronchoconstriction in guinea pig after peroral administration. The format is functional. As to conditions: po, read-out: ID50 (the source's name).
Series [16] is filed under the species Rattus norvegicus. The experiment in a line: The compound was tested for inhibitory activity against […] synthesis in rat macrophages. It is filed as functional.

Cyclooxygenase (Rattus norvegicus), sequence (P35355 whole entry, looked up): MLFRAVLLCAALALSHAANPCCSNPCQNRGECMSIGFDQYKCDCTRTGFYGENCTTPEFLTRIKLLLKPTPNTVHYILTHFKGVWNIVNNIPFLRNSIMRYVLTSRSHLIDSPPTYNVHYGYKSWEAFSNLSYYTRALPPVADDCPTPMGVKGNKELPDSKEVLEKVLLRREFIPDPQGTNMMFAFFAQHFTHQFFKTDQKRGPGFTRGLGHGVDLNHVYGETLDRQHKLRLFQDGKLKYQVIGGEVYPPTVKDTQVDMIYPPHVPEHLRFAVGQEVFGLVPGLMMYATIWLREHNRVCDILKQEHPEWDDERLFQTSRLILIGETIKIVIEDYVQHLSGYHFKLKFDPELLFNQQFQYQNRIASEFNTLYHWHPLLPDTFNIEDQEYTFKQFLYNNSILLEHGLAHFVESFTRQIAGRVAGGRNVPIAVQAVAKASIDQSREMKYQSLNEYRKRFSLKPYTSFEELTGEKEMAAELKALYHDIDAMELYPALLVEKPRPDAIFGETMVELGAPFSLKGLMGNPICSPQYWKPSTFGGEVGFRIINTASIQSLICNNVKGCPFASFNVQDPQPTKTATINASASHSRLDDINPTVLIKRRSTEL
Cyclooxygenase (Rattus norvegicus), sequence (Q63921 whole entry, looked up): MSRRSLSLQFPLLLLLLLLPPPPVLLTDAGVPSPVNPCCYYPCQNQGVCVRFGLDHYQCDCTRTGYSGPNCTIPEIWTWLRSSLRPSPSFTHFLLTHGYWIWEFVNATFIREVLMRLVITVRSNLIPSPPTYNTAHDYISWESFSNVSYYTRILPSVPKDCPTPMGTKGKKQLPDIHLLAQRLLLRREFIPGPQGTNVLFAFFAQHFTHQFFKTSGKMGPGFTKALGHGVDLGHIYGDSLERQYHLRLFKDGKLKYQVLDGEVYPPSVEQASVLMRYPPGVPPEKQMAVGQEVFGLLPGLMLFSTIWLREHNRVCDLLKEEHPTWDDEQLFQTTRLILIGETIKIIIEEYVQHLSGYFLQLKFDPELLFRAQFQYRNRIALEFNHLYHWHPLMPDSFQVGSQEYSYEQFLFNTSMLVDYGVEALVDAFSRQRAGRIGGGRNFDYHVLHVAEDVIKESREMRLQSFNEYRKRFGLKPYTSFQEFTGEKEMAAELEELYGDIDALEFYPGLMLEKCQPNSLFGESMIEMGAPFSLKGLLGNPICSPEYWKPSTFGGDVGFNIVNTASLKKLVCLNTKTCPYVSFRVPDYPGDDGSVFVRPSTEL

Regarding `CCCc1c(OCCCCc2nnn[nH]2)ccc(C(C)=O)c1O` [TOMELUKAST], the Ki in series [1] was found to be 0.06 µM. Moreover, the Kb in the series listed under Cavia porcellus [2] is 0.209 µM.
In series [3], `Cc1c(CC(=O)O)c2cc(OCc3ccc4ccccc4n3)ccc2n1Cc1ccc(Cl)cc1` came in with a half-inhibitory concentration (IC50) of 0.004 µM.
As for `CC(C(=O)O)c1ccc2cc(OCc3ccc4ccccc4n3)ccc2c1` (stereo not drawn), the Inhibition in series [4] amounted to 30%. Further, the ED50 in the series with Mus musculus [5] worked out at 11.1 mg/kg; in the series with Rattus norvegicus [7], 75 mg/kg. In series [6], this compound registered an IC50 of 0.13 µM.
Compound `C[C@H](OCC(=O)O)[C@@H](C)Sc1cc(C(C)(C)C)c(O)c(C(C)(C)C)c1` came in with an IC50 in the series on RBL-1 of 3.7 µM.
As to `O=S(=O)(Nc1cccc(OCc2ccc3ccccc3n2)c1)C(F)(F)F` [RITOLUKAST], the bioavailability in series [8] amounted to 49%. The IC50 was 4.3 µM in series [9], 3.3 µM in the series listed under Rattus norvegicus [10], 4.4 µM in the series listed under Mus musculus [11] and 4.6 µM in the series listed under Rattus norvegicus [13]. In the series on Rattus norvegicus [12], the Inhibition was determined as 20%. Besides, the Kb in the series listed under Cavia porcellus [2] was 0.024 µM. This compound also gave a half-life in series [14] of 30 min. In addition, the ED50 with Cavia porcellus [15] was determined as 0.6 mg/kg.
In the series filed under Rattus norvegicus [16], `CC1=C(C)C(=O)C(CCCCC#CCCCC#CCO)=C(C)C1=O` [DOCEBENONE] registered an IC50 of 0.08 µM.

Source of the values: ChEMBL document CHEMBL1125472, “5-lipoxygenase: properties, pharmacology, and the quinolinyl(bridged)aryl class of inhibitors” (J Med Chem, 1992).
